Source: the NIST ThermoML archive (doi:10.1016/j.fluid.2017.01.019)

Experiments:
[1] = 101.33 kPa, Liquid; for viscosity: Falling or rolling sphere viscometry; for speed of sound: Sing-around technique in a fixed-path interferometer; for mass density: Vibrating tube method
[2] = xn = mol fraction of the nth substance listed; conditions: 100 kPa, Liquid, x2 = 0; for mass density: Vibrating tube method; for viscosity: Falling or rolling sphere viscometry; for speed of sound: Frequency=3 MHz, Sing-around technique in a fixed-path interferometer

CCOS(=O)(=O)[O-].CCn1cc[n+](C)c1 [1-ethyl-3-methylimidazolium ethyl sulfate]
[1]
Conditions	mass density [kg/m3]	speed of sound [m/s]	viscosity [mPa·s]
298.15 K	1236.33	1682.3	96.21
303.15 K	1232.93	1670	75.89
308.15 K	1229.57	1657.9	60.73
313.15 K	1226.21	1645.9	49.38
318.15 K	1222.87	1634.1	40.93
323.15 K	1219.54	1622.3	33.82

CCCCO [butan-1-ol]
[1]
Conditions	mass density [kg/m3]	speed of sound [m/s]	viscosity [mPa·s]
298.15 K	806.27	1239.8	2.61
303.15 K	802.42	1223.2	2.31
308.15 K	798.536	1206.3	2.07
313.15 K	794.617	1189.7	1.85
318.15 K	790.655	1173.1	1.66
323.15 K	786.645	1156.5	1.5

CCCCO [butan-1-ol] + CCOS(=O)(=O)[O-].CCn1cc[n+](C)c1
[2]
Conditions	mass density [kg/m3]	speed of sound [m/s]	viscosity [mPa·s]
289.15 K	806.27	–	–
298.15 K	–	1241.1	2.61
303.15 K	802.42	1224.3	2.31
308.15 K	798.536	1207.5	2.07
313.15 K	794.617	1190.9	1.85
318.15 K	790.655	1174.2	1.66
323.15 K	786.645	1157.6	1.5

CO [methanol]
[1]
Conditions	mass density [kg/m3]	speed of sound [m/s]	viscosity [mPa·s]
298.15 K	786.884	1103.3	0.55
303.15 K	782.158	1086.9	0.51
308.15 K	777.414	1070.6	0.48
313.15 K	772.64	1054.5	0.45
318.15 K	767.844	1038.5	0.43
323.15 K	763.028	1022.5	0.41

CO [methanol] + CCCCO
[2]
Conditions	mass density [kg/m3]	speed of sound [m/s]	viscosity [mPa·s]
293.15 K	–	–	0.55
298.15 K	786.884	1103.3	–
303.15 K	782.158	1086.9	0.51
308.15 K	777.414	1070.6	0.48
313.15 K	772.64	1054.5	0.45
318.15 K	767.844	1038.5	0.43
323.15 K	763.028	1022.5	0.41

CO [methanol] + CCOS(=O)(=O)[O-].CCn1cc[n+](C)c1
[2]
Conditions	mass density [kg/m3]	speed of sound [m/s]	viscosity [mPa·s]
298.15 K	786.884	–	0.55
303.15 K	782.158	1086.9	0.51
308.15 K	777.414	1070.6	0.48
313.15 K	772.64	1054.5	0.45
318.15 K	767.844	1038.5	0.43
323.15 K	763.028	1022.5	0.41
